Measurements taken from PubChem BioAssay AID330 (DTP/NCI, 2004).
Values joined by “and” are separate entries in the source; they are usually repeats but may differ in a detail not shown here. Identical values can stand only once. Inconclusive results and toxic doses are left out. The calls were made as follows: active = survival T/C of 150% or more; inactive = T/C below 125% in these data.

System: P388 leukemia ip, CD2F1 mice, survival T/C
Experiment: NCI In Vivo Anticancer Drug Screen. Data for tumor model P388 Leukemia (intraperitoneal) in CD2F1 (CDF1) mice
Conditions: endpoint: median survival time, higher = longer survival
Outline: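 Mice carrying the transplanted tumor received test compound or vehicle. Survival was recorded in each group, and the value is the treated-group measurement divided by that of the vehicle-treated control group.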

[1] = dose: 60.0 mg/kg/injection, schedule: Q01DX005 (ip), vehicle: saline with Tween-80
[2] = dose: 120.0 mg/kg/injection, schedule: Q01DX005 (ip), vehicle: saline with Tween-80
[3] = dose: 240.0 mg/kg/injection, schedule: Q01DX005 (ip), vehicle: saline with Tween-80
[4] = dose: 50.0 mg/kg/injection, schedule: Q01DX009 (ip), vehicle: Klucel (hydroxypropylcellulose) (HPC)
[5] = dose: 100.0 mg/kg/injection, schedule: Q01DX009 (ip), vehicle: Klucel (hydroxypropylcellulose) (HPC)
[6] = dose: 200.0 mg/kg/injection, schedule: Q01DX009 (ip), vehicle: Klucel (hydroxypropylcellulose) (HPC)
[7] = dose: 100.0 mg/kg/injection, schedule: Q04DX003 (ip), vehicle: Klucel (hydroxypropylcellulose) (HPC)
[8] = dose: 200.0 mg/kg/injection, schedule: Q04DX003 (ip), vehicle: Klucel (hydroxypropylcellulose) (HPC)
[9] = dose: 400.0 mg/kg/injection, schedule: Q04DX003 (ip), vehicle: Klucel (hydroxypropylcellulose) (HPC)
[10] = dose: 6.25 mg/kg/injection, schedule: Q01DX009 (ip), vehicle: saline with Tween-80
[11] = dose: 12.5 mg/kg/injection, schedule: Q01DX009 (ip), vehicle: saline with Tween-80
[12] = dose: 25.0 mg/kg/injection, schedule: Q01DX009 (ip), vehicle: saline with Tween-80

Measured: T/C

COc1ccc(C(=O)CCc2c[nH]c3ccccc23)c(O)c1
inactive: [1] 101 % of control | [2] 112 % of control | [3] 92 % of control

CN=C(NN(C)C)c1ccc(NC(=O)c2ccc(C(=O)Nc3ccc(C(=NC)NN(C)C)cc3)cc2)cc1
inactive: dose: 3.3 mg/kg/injection, schedule: Q01DX009 (ip), vehicle: saline with Tween-80 115 % of control | dose: 4.3 mg/kg/injection, schedule: Q01DX009 (ip), vehicle: saline with Tween-80 118 % of control | dose: 13.2 mg/kg/injection, schedule: Q04DX003 (ip), vehicle: saline with Tween-80 91 % of control

Cc1cc(NC(=S)SCc2ccc3c(c2)OCO3)ccc1Cl
inactive: [4] 112 % of control | dose: 50.0 mg/kg/injection, schedule: Q01DX009 (ip), vehicle: suspension in saline 91 % of control | [5] 122 % of control | dose: 100.0 mg/kg/injection, schedule: Q01DX009 (ip), vehicle: suspension in saline 94 % of control | [6] 114 % of control | dose: 200.0 mg/kg/injection, schedule: Q01DX009 (ip), vehicle: suspension in saline 90 % of control

O=C1CC[C@H]2[C@@H]3N1c1ccccc1[C@@]31CCN3C/C(=C/CBr)[C@@H]2C[C@H]31
inactive: dose: 7.5 mg/kg/injection, schedule: Q01DX005 (ip), vehicle: Klucel (hydroxypropylcellulose) (HPC) 100 % of control | dose: 15.0 mg/kg/injection, schedule: Q01DX005 (ip), vehicle: Klucel (hydroxypropylcellulose) (HPC) 102 % of control

CSc1sc(C#N)c2nc3c(nc12)-c1cccc2cccc-3c12
inactive: dose: 50.0 mg/kg/injection, schedule: Q04DX002 (ip), vehicle: saline with Tween-80 88 % of control | dose: 100.0 mg/kg/injection, schedule: Q04DX002 (ip), vehicle: saline with Tween-80 88 % of control | dose: 200.0 mg/kg/injection, schedule: Q04DX002 (ip), vehicle: saline with Tween-80 91 % of control

c1ccc(Nc2ccc(CN3CCCCC3)cc2)cc1
inactive: dose: 60.0 mg/kg/injection, schedule: Q01DX005 (ip), vehicle: Klucel (hydroxypropylcellulose) (HPC) 93 % of control | dose: 120.0 mg/kg/injection, schedule: Q01DX005 (ip), vehicle: Klucel (hydroxypropylcellulose) (HPC) 99 % of control | dose: 240.0 mg/kg/injection, schedule: Q01DX005 (ip), vehicle: Klucel (hydroxypropylcellulose) (HPC) 87 % of control

O=C(Nc1ccccc1C(=O)Nc1nccs1)c1ccccc1
inactive: [1] 86 % of control | [2] 93 % of control | [3] 98 % of control

COc1cc2c(/C=N/Nc3ccccc3[N+](=O)[O-])c(Cl)[nH]c2cc1C
inactive: dose: 50.0 mg/kg/injection, schedule: Q01DX001 (ip), vehicle: Klucel (hydroxypropylcellulose) (HPC) 107 % of control | dose: 100.0 mg/kg/injection, schedule: Q01DX001 (ip), vehicle: Klucel (hydroxypropylcellulose) (HPC) 98 % of control and 87 % of control | dose: 200.0 mg/kg/injection, schedule: Q01DX001 (ip), vehicle: Klucel (hydroxypropylcellulose) (HPC) 98 % of control and 87 % of control | dose: 400.0 mg/kg/injection, schedule: Q01DX001 (ip), vehicle: Klucel (hydroxypropylcellulose) (HPC) 90 % of control

CC(C)(C)c1ccc(SS(=O)(=O)c2ccc(C(C)(C)C)cc2)cc1
inactive: dose: 100.0 mg/kg/injection, schedule: Q01DX001 (ip), vehicle: saline with Tween-80 98 % of control | [7] 97 % of control | dose: 200.0 mg/kg/injection, schedule: Q01DX001 (ip), vehicle: saline with Tween-80 100 % of control | [8] 104 % of control | dose: 400.0 mg/kg/injection, schedule: Q01DX001 (ip), vehicle: saline with Tween-80 97 % of control | [9] 105 % of control

CC1=C(O)C(=O)C=C2C1=CC=C1[C@@]2(C)CCC2(C)[C@@H]3C[C@@H](C)C(=O)C[C@]3(C)CC[C@]12C (stereo not given in full)
inactive: dose: 12.5 mg/kg/injection, schedule: Q01DX005 (ip), vehicle: Klucel (hydroxypropylcellulose) (HPC) 109 % of control | dose: 25.0 mg/kg/injection, schedule: Q01DX005 (ip), vehicle: Klucel (hydroxypropylcellulose) (HPC) 101 % of control | dose: 50.0 mg/kg/injection, schedule: Q01DX005 (ip), vehicle: Klucel (hydroxypropylcellulose) (HPC) 90 % of control | dose: 100.0 mg/kg/injection, schedule: Q01DX005 (ip), vehicle: Klucel (hydroxypropylcellulose) (HPC) 97 % of control | dose: 260.0 mg/kg/injection, schedule: Q01DX005 (ip), vehicle: Klucel (hydroxypropylcellulose) (HPC) 97 % of control

CC1NC(=O)C(C)NC1=O (stereo not given)
inactive: [4] 93 % of control | [5] 96 % of control | [6] 94 % of control

CCOC(=O)c1cc(NO)c(=O)c2ccc(OC)cc2c1
inactive: dose: 25.0 mg/kg/injection, schedule: Q01DX005 (ip), vehicle: saline with Tween-80 91 % of control | dose: 50.0 mg/kg/injection, schedule: Q01DX005 (ip), vehicle: saline with Tween-80 90 % of control and 96 % of control | dose: 100.0 mg/kg/injection, schedule: Q01DX005 (ip), vehicle: saline with Tween-80 89 % of control | dose: 200.0 mg/kg/injection, schedule: Q01DX005 (ip), vehicle: saline with Tween-80 91 % of control

O=C1C(=O)C(Cl)=C(Cl)C(Cl)=C1Cl
inactive: [10] 100 % of control and 95 % of control | [11] 93 % of control | [12] 100 % of control and 98 % of control

O=C1COCC(=O)OCCOCCOCCO1
inactive: [7] 100 % of control | [8] 100 % of control | [9] 100 % of control

CCCCCCCCSC1=C(Cl)C(=O)C(OC)=C(OC)C1=O
inactive: dose: 1.5 mg/kg/injection, schedule: Q04DX002 (ip), vehicle: saline with Tween-80 101 % of control | dose: 3.0 mg/kg/injection, schedule: Q04DX002 (ip), vehicle: saline with Tween-80 99 % of control | dose: 6.0 mg/kg/injection, schedule: Q04DX002 (ip), vehicle: saline with Tween-80 99 % of control | [10] 101 % of control | dose: 12.0 mg/kg/injection, schedule: Q04DX002 (ip), vehicle: saline with Tween-80 108 % of control | [11] 105 % of control | dose: 24.0 mg/kg/injection, schedule: Q04DX002 (ip), vehicle: saline with Tween-80 108 % of control | [12] 111 % of control | dose: 48.0 mg/kg/injection, schedule: Q04DX002 (ip), vehicle: saline with Tween-80 107 % of control

CCOC(=O)[C](=[N+]=[N-])[Hg][C](=[N+]=[N-])C(=O)OCC
inactive: dose: 1.56 mg/kg/injection, schedule: Q04DX003 (ip), vehicle: saline 100 % of control | dose: 3.12 mg/kg/injection, schedule: Q04DX003 (ip), vehicle: saline 101 % of control | dose: 6.25 mg/kg/injection, schedule: Q04DX003 (ip), vehicle: saline 100 % of control

CCCC1(CCC)NC(=O)N(CC(=O)OCC)C1=O
inactive: dose: 100.0 mg/kg/injection, schedule: Q01DX001 (ip), vehicle: saline 105 % of control | dose: 200.0 mg/kg/injection, schedule: Q01DX001 (ip), vehicle: saline 110 % of control
